Measured values reported in ChEMBL document CHEMBL4507268 (2021).

What was measured:
Conditions in all cases: Compound concentration 1.0 uM
[1] = molecular target: T1, Serine/threonine-protein kinase BRSK1 (Homo sapiens) (UniProt Q8TDC3)
T1 sequence (whole entry): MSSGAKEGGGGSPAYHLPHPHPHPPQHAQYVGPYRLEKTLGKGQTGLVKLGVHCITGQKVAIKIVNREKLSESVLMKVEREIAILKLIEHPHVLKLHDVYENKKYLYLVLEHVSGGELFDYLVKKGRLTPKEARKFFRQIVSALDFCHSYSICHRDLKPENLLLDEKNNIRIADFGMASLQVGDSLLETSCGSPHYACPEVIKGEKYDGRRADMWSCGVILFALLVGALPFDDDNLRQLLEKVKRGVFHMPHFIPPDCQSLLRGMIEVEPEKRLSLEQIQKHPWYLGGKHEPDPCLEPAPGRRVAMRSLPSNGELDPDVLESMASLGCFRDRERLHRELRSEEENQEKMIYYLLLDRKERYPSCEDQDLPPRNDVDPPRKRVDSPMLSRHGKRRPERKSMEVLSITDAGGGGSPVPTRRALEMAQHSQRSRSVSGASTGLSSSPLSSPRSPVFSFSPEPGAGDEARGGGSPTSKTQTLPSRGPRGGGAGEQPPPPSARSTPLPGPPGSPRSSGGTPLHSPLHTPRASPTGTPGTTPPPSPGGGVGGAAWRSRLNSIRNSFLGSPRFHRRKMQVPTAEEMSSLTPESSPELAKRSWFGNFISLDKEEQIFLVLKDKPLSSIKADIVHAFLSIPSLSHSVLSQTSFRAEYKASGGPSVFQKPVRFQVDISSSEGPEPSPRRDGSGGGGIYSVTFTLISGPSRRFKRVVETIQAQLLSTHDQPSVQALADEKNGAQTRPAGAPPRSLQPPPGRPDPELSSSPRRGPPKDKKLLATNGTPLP

[2] = molecular target: Ephrin type-A receptor 4 (Homo sapiens) (UniProt P54764)
Ephrin type-A receptor 4 (Homo sapiens), sequence (P54764 whole entry): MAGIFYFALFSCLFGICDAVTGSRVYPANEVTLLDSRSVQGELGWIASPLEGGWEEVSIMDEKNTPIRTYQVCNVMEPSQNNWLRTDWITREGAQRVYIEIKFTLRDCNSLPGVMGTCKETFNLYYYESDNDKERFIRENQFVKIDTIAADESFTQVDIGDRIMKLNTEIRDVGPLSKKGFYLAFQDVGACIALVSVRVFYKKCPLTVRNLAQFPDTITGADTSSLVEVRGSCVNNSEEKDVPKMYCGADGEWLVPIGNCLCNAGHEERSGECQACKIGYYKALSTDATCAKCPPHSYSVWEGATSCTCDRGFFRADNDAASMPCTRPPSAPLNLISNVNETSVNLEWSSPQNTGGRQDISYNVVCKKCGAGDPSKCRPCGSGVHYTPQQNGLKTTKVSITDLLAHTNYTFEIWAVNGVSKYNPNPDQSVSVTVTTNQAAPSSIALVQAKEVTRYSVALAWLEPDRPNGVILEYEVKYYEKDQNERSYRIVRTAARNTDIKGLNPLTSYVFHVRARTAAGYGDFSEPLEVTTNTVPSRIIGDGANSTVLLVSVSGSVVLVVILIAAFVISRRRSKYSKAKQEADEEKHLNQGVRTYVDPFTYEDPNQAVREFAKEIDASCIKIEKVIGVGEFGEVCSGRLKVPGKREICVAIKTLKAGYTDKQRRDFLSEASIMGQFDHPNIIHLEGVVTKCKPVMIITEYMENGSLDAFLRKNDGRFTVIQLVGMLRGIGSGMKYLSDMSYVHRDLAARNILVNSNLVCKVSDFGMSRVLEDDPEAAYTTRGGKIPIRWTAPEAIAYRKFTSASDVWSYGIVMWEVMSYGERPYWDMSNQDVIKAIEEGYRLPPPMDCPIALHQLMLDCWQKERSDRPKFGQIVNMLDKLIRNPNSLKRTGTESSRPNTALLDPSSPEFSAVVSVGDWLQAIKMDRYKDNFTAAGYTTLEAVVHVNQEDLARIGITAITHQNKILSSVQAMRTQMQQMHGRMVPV

[3] = molecular target: T2, Serine/threonine-protein kinase MAK (Homo sapiens) (UniProt P20794)
T2 sequence (whole entry): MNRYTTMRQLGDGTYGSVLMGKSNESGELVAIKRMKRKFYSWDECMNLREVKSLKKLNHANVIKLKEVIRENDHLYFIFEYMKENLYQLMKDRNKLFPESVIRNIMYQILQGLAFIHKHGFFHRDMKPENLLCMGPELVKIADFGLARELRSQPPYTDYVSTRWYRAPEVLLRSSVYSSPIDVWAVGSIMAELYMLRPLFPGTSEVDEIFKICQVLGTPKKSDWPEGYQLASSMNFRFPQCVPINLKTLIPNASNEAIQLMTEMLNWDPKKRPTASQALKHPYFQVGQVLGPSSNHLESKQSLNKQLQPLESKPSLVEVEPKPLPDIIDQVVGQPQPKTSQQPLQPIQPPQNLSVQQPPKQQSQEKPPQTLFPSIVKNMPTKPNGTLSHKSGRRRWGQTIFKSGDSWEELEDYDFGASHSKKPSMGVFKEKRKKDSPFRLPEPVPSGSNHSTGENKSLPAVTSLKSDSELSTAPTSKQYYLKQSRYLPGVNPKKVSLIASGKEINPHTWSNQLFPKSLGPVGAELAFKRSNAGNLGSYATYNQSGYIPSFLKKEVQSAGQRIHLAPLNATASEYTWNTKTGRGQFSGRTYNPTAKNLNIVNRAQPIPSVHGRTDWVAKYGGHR

[4] = molecular target: T3, Dual specificity mitogen-activated protein kinase kinase 3 (Homo sapiens) (UniProt P46734)
T3 sequence (whole entry): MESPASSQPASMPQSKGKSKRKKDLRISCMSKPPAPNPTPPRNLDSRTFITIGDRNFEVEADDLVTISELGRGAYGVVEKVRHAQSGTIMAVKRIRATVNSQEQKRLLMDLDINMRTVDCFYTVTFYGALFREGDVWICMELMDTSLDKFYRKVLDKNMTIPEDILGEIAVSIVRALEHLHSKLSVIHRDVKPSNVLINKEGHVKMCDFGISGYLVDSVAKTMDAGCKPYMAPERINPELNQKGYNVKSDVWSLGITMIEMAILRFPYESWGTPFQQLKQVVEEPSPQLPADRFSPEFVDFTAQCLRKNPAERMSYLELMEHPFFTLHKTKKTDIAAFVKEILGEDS

[5] = molecular target: Serine/threonine-protein kinase mTOR (Homo sapiens) (UniProt P42345)
[6] = molecular target: T4, Serine/threonine-protein kinase Nek9 (Homo sapiens) (UniProt Q8TD19)
T4 sequence (whole entry): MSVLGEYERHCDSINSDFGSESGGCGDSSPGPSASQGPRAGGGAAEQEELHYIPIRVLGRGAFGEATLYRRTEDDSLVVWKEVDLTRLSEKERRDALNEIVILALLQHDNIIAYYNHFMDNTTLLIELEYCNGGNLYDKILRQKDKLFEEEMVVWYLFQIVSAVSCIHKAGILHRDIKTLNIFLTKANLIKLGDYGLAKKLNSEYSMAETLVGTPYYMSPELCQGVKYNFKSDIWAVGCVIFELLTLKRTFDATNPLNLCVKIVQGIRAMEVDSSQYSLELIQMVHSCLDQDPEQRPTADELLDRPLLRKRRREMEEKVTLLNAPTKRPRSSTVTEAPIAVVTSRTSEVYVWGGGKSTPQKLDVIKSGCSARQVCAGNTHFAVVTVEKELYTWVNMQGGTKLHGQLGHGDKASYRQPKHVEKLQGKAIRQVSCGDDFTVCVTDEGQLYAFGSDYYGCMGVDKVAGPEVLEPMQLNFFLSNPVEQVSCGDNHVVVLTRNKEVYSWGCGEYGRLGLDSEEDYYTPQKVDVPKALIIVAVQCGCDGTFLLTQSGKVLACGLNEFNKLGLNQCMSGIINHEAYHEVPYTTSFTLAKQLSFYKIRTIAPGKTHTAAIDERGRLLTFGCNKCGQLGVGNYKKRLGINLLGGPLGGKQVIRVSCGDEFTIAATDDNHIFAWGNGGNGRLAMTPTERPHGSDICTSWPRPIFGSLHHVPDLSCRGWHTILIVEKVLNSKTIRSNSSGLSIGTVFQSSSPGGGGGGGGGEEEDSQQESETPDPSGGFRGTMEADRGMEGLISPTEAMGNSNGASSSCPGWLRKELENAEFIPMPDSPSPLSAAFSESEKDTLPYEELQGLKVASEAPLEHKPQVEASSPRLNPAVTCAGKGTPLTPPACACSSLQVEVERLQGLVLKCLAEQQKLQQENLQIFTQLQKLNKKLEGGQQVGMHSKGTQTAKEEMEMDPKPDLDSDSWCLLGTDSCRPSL

[7] = molecular target: Tyrosine-protein kinase SYK (Homo sapiens) (UniProt P43405)
[8] = molecular target: Phosphatidylinositol 4-phosphate 5-kinase type-1 alpha (Homo sapiens) (UniProt Q99755)
Phosphatidylinositol 4-phosphate 5-kinase type-1 alpha (Homo sapiens), sequence (Q99755 whole entry): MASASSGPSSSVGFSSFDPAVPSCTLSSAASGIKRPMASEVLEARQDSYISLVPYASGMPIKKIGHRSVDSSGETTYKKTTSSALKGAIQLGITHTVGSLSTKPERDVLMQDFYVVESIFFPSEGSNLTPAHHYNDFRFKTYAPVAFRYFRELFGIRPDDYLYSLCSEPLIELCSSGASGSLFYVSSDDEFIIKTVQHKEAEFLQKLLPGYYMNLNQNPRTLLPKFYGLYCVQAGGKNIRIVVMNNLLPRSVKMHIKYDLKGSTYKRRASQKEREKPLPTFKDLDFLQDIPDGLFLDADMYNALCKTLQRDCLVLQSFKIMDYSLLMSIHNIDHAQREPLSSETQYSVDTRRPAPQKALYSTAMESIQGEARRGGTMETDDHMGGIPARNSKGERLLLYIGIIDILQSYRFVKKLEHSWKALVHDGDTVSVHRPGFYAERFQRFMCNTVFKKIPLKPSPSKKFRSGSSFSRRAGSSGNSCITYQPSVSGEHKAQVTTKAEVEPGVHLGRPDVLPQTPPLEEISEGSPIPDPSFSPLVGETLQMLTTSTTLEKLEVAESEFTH

Measured: % residual kinase activity

CN1CCN(c2cnc3c(C4CCN(C(=O)c5ccc(OC(F)(F)F)cc5N)CC4)ncnc3c2)CC1 [BAY-885]
inactive: [1] 104% | [2] 82% | [3] 125% | [4] 92% | [5] 104% | [6] 92% | [7] 87% | [8] 98%
